Data set [1] concerns weeds. The data set can be described thus: Pre-emergence test, activity against weeds. In kind it is in vivo. The settings on record: soil sprayed 24 hours after sowing, rated after three weeks. An excerpt: (§1) Solvent: 5 parts by weight of acetone
Seeds of the test plants are sown in normal soil.

In data set [2] the test system is weeds. The data set is described as follows: Trial in sown rice (greenhouse), activity against weeds. Type of data set: in vivo. Conditions: foliar treatment at 1.5-2-leaf stage of rice, flooded, rated 4 weeks after application.
Excerpt: as §1
Plant vessels (dimensions: 20 cm×20 cm×9 cm; surface: 1/200 ar) are filled with soil from a rice field. Seeds of rice and weeds are sown into the soil, which is kept moist. At the 1.5-2-leaf stage of rice, the dilute preparation of active compound is applied as a spray (foliar treatment).
One day after the treatment, the test vessels are flooded to a water depth of 3 cm. The test batches are then kept flooded (water depth 3 cm).

Data set [3] deals with crop plants. The settings on record: post-emergence, rated after three weeks.
Excerpt: Emulsifier: 1 part by weight of alkylaryl polyglycol ether
After three weeks, the degree of damage to the plants is rated in % damage in comparison to the development of the untreated control.
The nature of data set [4]: log P by reversed-phase HPLC (C 18), acidic range. Type of data set: physicochemical. The settings on record: for logP: marked a): acidic range. The procedure: Temperature: 43° C. (a) Mobile phases for the determination in the acidic range: 0.1% aqueous phosphoric acid, acetonitrile; linear gradient from 10% acetonitrile to 90% acetonitrile—the corresponding measurement results are marked ^a) in Table 1.

For data set [5], the system named is broad-leaved weeds and weed grasses. The data set can be described thus: Post-emergence test, activity against weeds. Type of data set: in vivo. The settings on record: test plants 5-15 cm sprayed, rated after three weeks.
Excerpt: as §1

Data set [6] deals with rice. The data set is described as follows: Trial in sown rice (greenhouse), tolerance by rice. The settings on record: foliar treatment at 1.5-2-leaf stage of rice, flooded, rated 4 weeks after application. Type of data set: in vivo.
Excerpt: as §1
Plant vessels (dimensions: 20 cm×20 cm×9 cm; surface: 1/200 ar) are filled with soil from a rice field. Seeds of rice and weeds are sown into the soil, which is kept moist.
The test batches are then kept flooded (water depth 3 cm).

[7] abbreviates: 0.1% aqueous phosphoric acid/acetonitrile gradient, HPLC C 18, 43° C.
Setting [8] is: 0.1% aqueous phosphoric acid, acetonitrile, HPLC reversed-phase column (C 18), 43° C.

For orientation: chromatographic logP means a lipophilicity value derived from retention on a column. The low end stands for lower lipophilicity, the high end for higher lipophilicity. For the compound `CN1CCN(C(=O)Nc2c(Cl)ccc(C(=O)C3C(=O)CCCC3=O)c2Cl)C1=O` [Example 1-1, N-[2,6-dichloro-3-[(2,6-dioxo-cyclohexyl)-carbonyl]-phenyl]-3-methyl-2-oxo-1-imidazolidinecarboxamide], the activity against weeds result in data set [1] and in data set [2] was “strong activity” throughout. Further, the “tolerated by crop plants” value in data set [3] was “tolerated well”. In data set [4] (reversed-phase HPLC column (C 18), pH=2.3), this compound gave a chromatographic logP of 2.07. Besides, the “activity against broad-leaved weeds and weed grasses” value in data set [5] was “strong activity”. Further, in data set [6], the tolerated by rice result is recorded as “tolerated well”.
On to `CCN1CCN(C(=O)Nc2c(Cl)ccc(C(=O)C3=C(O)CCCC3=O)c2Cl)C1=O` [Example 1-2], for which the activity against weeds entry in data set [1] is recorded as “strong activity”. In addition, in data set [4] (setting [7]), the logP result was “(I-2) logP = 2.33^a)”.
`CON(C)C(=O)Nc1c(Cl)ccc(C(=O)C2=C(O)CCCC2=O)c1Cl` [Example 1-3]: the activity against weeds entry in data set [1] is reported as “strong activity”. In data set [4] (setting [7]), the logP result is given as “(I-2) logP = 1.97^a)”.
For `CN1CCCN(C(=O)Nc2c(Cl)ccc(C(=O)C3=C(O)CCCC3=O)c2Cl)C1=O` [Example 1-4], in that order: “strong activity” and “(I-2) logP = 2.33^a)”.
With `O=C1CCCC(O)=C1C(=O)c1ccc(Cl)c(NC(=O)N2CCOCC2)c1Cl` [Example 1-5], the activity against weeds entry in data set [1] is recorded as “strong activity”. For the same compound, in data set [4] (setting [7]), the logP result is listed as “(I-2) logP = 1.60^a)”.
As to `CN(C)NC(=O)Nc1c(Cl)ccc(C(=O)C2=C(O)CCCC2=O)c1Cl` [Example 1-6], in data set [1], the activity against weeds entry is listed as “strong activity”. Besides, the logP result in data set [4] (setting [7]) is given as “(I-2) logP = 1.81^a)”.
In the case of `CCCN(C)C(=O)Nc1c(Cl)ccc(C(=O)C2=C(O)CCCC2=O)c1Cl` [Example 1-173], the logP result in data set [4] (setting [7]) was “(I-2) logP = 2.22^a)”.
Take `CON(C)C(=O)Nc1c(Cl)ccc(C(=O)C2=C(O)C(C)(C)CCC2=O)c1Cl` [Example 2-1]: the logP result in data set [4] (setting [8]) was “(I-2) logP = 2.61^a)”.
Still for that read-out and setting: with `CC1(C)CCC(=O)C(C(=O)c2ccc(Cl)c(NC(=O)N3CCCO3)c2Cl)=C1O` [Example 2-61] the entry was “(I-2) logP = 2.57^a)”; with `CC1(C)CCC(=O)C(C(=O)c2ccc(Cl)c(NC(=O)N3CCCCO3)c2Cl)=C1O` [Example 2-69], “(I-2) logP = 2.83^a)”; with `CON(C)C(=O)Nc1c(Cl)ccc(C(=O)C2=C(O)CC(C)(C)CC2=O)c1Cl` [Example 4-1], “(I-2) logP = 2.54^a)”.
Still for that read-out and setting: for `CC1(C)CC(=O)C(C(=O)c2ccc(Cl)c(NC(=O)N3CCCCO3)c2Cl)=C(O)C1` [Example 4-69] the value was “(I-2) logP = 2.76^a)”.
As to `CON(C)C(=O)Nc1c(Cl)ccc(C(=O)C2=C(O)C3CCC(C3)C2=O)c1Cl` (centres unmarked) [Example 5-1], the logP result in data set [4] (0.1% aqueous phosphoric acid/acetonitrile gradient, reversed-phase HPLC C 18, 43° C.) is reported as “(I-2) logP = 2.23^a)”.
Consider `COC(=O)c1ccc(Cl)c(NC(=O)N2CCOCC2)c1Cl` [IIIa-6], for which the logP entry in data set [4] (setting [7]) was “logP = 1.34^a)”.
Same read-out and setting: with `COC(=O)c1ccc(Cl)c(NC(=O)NN(C)C)c1Cl` [IIIa-7] the entry was “logP = 1.64^a)”.
Take `COC(=O)c1ccc(Cl)c(NC(=O)N2CCN(C)CC2)c1Cl` [IIIa-8]: the logP result in data set [4] (setting [7]) was “logP = 0.50^a)”.
Turning to `CCN(CC)C(=O)Nc1c(Cl)ccc(C(=O)OC)c1Cl` [IIIa-9], the logP entry in data set [4] (setting [7]) is reported as “logP = 2.02^a)”.
As for `COC(=O)c1ccc(C(F)(F)F)cc1NC(=O)N(C)OC` [IIIa-10], in data set [4] (setting [7]), the logP entry is given as “logP = 3.35^a)”.
Same read-out and setting: with `COC(=O)c1ccc(C(F)(F)F)cc1NC(=O)N1CCN(C)C1=O` [IIIa-11] the entry was “logP = 2.76^a)”; with `CCN(CC)C(=O)Nc1cc(C(F)(F)F)ccc1C(=O)OC` [IIIa-17], “logP = 3.10^a)”.
As for `COC(=O)c1ccc(Cl)c(NC(=O)N2CCCN(CC(C)C)C2=O)c1Cl` [IIIa-21], the logP result in data set [4] (setting [7]) was “logP = 3.43^a)”.
On the same count and under the same terms, for `COC(=O)c1ccc(Cl)c(NC(=O)Nn2cnnc2)c1Cl` [IIIa-25] the value was “logP = 0.93^a)”.

Source of the values: patent publication US7670991B2, “Substituted benzoylcyclohexenones and their use as herbicidal agents” (Bayer CropScience AG, priority 2001, dated 2010).
